Assay [1] addresses T1, PSMA (Homo sapiens, UniProt Q04609). The experiment in a line: Binding of 3H-ZJ24 to recombinant hPSMA, Scatchard analysis. Set-up: Recombinant protein of the extracellular domain of PSMA can also exist in readily inter-convertible dimer-monomer forms. The conditions noted are these: 50 mM Tris buffer pH 7.5, 30 min, 37° C. How it is done:
FIG. 2 is a graph showing binding to the monomeric and active dimeric form of soluble recombinant hPSMA of a ^3H (tritium) radiolabled (ZJ24), ^3H—(S)-2-[3-((R)-1-carboxy-2-methyl-sulfanyl-ethyl)-ureido]-pentanedioic acid or [^3H]MeCys-C(O)-Glu Parent PMSA ligand (6) maintains its specificity for PSMA by binding to recombinant hPSMA with a Kd of 2 nM based on Scatchard analysis. The binding assay was performed in 50 mM Tris buffer (pH 7.5). Briefly, 0.5 μg of recombinant PSMA was incubated with ^3H-ZJ24 in a total volume of 100 μL for 30 min at 37° C. The mixture was centrifuged through a 50K cutoff membrane. Then 50 μL of filtrate was added to 4 mL of cocktail and the radioactivity measured. […] After 60 min less than 10% of the compound found in kidney and plasma was degraded.
Target sequence in this assay (Q04609 44-750 limits assumed): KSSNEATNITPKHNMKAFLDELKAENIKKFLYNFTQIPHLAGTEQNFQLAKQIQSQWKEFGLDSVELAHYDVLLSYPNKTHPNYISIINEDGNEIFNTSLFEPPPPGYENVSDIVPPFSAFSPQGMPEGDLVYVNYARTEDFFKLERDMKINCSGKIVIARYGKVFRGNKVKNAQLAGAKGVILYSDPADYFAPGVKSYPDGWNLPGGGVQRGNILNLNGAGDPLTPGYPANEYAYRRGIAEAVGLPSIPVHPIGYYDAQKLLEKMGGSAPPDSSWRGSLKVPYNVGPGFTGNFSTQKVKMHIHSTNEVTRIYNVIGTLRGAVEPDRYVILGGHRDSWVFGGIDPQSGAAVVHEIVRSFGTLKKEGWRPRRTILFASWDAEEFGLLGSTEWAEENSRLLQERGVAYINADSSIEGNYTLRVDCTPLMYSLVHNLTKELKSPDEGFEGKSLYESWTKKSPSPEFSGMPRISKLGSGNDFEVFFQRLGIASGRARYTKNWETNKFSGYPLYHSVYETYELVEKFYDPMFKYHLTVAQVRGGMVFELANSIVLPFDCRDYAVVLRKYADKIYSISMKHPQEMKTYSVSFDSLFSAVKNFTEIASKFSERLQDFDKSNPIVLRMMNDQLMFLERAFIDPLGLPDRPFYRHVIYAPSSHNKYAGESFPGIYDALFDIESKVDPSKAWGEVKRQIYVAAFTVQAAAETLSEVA

The target of assay [2] is T1, PSMA. The experiment in a line: Inhibition of folate hydrolase activity of PSMA, PSMA positive membrane preparations, substrate MTXGlu2, HPLC. The class given is biochemical. Set-up: host or cells: PSMA positive membrane preparations. How it is done:
(§1) Described herein are new compounds, which can activate RNase L in PSMA expressing cells. 2-5A was targeted for delivery to PSMA by linking it with a ligand to PSMA. We modified ZJ24, a low molecular weight ligand for PSMA, with 2-5A through a 4-(N-maleimidomethyl)cyclohexane-1-amidate linkage to generate RBI 1033. The inhibitory activity of RBI 1033 to the folate hydrolase activity of PSMA was measured. The PSMA positive membrane preparations were incubated with different concentrations of ZJ24, RBI 1033 and RBI 1032 (2-5A with linker only) together with the substrate methotrexate diglutamate (MTXGlu2) for 1 h. The amount of methotrexate and MTXGlu2 were then determined by HPLC. […] Binding studies were performed by incubating membranes with different concentrations of drugs in the presence of 12 nM of ^3H-ZJ24 for 30 min. […] These studies indicate that RBI 1033 has excellent binding properties to PSMA, which can enable it to serve as a vector for imaging or therapy.
Target sequence in this assay (Q04609 whole entry, the tested form may be a part): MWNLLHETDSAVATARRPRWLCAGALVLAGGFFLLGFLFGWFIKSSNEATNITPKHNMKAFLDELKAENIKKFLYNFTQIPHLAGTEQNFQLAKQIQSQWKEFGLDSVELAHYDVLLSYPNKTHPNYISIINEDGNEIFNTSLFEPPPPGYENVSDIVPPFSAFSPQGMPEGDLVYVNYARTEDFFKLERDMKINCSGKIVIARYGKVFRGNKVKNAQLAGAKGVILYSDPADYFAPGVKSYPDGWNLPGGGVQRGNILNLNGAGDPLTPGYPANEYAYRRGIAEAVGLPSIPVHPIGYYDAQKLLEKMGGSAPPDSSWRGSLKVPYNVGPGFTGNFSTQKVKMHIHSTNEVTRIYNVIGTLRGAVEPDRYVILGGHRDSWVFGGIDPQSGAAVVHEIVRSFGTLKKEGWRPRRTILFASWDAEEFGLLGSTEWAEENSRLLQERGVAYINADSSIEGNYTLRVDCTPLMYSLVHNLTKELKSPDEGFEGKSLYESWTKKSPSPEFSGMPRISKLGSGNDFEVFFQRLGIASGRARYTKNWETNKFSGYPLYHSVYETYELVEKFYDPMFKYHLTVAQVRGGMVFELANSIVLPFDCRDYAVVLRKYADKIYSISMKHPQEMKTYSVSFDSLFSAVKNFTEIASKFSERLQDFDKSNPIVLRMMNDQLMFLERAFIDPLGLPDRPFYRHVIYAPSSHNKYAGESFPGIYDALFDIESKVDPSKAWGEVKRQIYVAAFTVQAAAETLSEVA

In assay [3] the target is T1, PSMA. The experiment in a line: Inhibition of 3H-ZJ24 binding to cell membranes. Set-up: host or cells: PSMA positive membrane preparations. How it is done:
as §1
Target sequence in this assay (Q04609 whole entry, the tested form may be a part): as above

In assay [4] the target is T2, active dimeric form of soluble recombinant hPSMA (Homo sapiens, UniProt Q04609).
T2 construct: Recombinant protein of the extracellular domain of PSMA can also exist in readily inter-convertible dimer-monomer forms
T2 sequence (Q04609 44-750 limits assumed): as the sequence (Q04609 44-750 limits assumed) above
The experiment in a line: Competition binding assay with 3H-ZJ24 on recombinant PSMA. The conditions noted are these: 0.5 μg recombinant PSMA, 12 nM 3H-ZJ24, 30 min, 37° C. How it is done:
Binding and activity of the disclosed 2-5A ligand towards the active dimeric form of soluble recombinant hPSMA was compared with methylated parent ligand Cys-C(O)-Glu ZJ24. The binding assay examines the ability of a novel compound to compete for binding with radio-labeled ZJ24. Different final concentrations of the inhibitor can be incubated in the presence of ZJ24 and the concentration required to inhibit 50% of binding is determined (the EC50). Briefly, 0.5 μg of recombinant PSMA was incubated with the ligand to be tested at different concentrations and 12 nM of ^3H-ZJ24 in a total volume of 100 μL for 30 min at 37° C. The mixture was centrifuged through a 50 kDa cut-off membrane. Finally, 4 mL of biodegradable counting cocktail Bio-Safe II was added, and radioactivity was counted.

The target of assay [5] is T1, PSMA. The experiment in a line: PSMA activity assay, hydrolysis of polyglutamate substrate MTXGlu2. Set-up: Recombinant protein of the extracellular domain of PSMA can also exist in readily inter-convertible dimer-monomer forms. The class given is biochemical. The conditions noted are these: 5 ng recombinant PSMA, MTXGlu2 5 nMol, 37° C, 1 h; read-out: EC50 for inhibition of PSMA activity. How it is done: The activity assay determines the ability of hPSMA to cleave/hydrolyze a polyglutamte substrate under the presence of a ligand at different concentrations. Briefly, recombinant PSMA (5 ng) was incubated with ZJ24 or disclosed 2-5A ligand. After 30 min the polyglutamate substrate MTXGlu2 (5 nMol) was added and the mixture was incubated at 37° C. for 1 h. The reaction was stopped by the addition of 100 μL of 50 mM Na2HPO4. The amount of MTX formed was analyzed using a Thermo Hypersil PRISM RP column (50×4.6 mm, flow rate 1.0 mL/min) at 313 nm.
Target sequence in this assay (Q04609 44-750 limits assumed): as above

What is called Kd is a measure of binding affinity in units of concentration. For `O=C(O)CCC(NC(=O)NC(CS)C(=O)O)C(=O)O` (stereo not shown) [Parent PMSA ligand (6)], the Kd on PSMA [1] was 2 nM.

Take `Nc1ncnc2c1ncn2[C@@H]1O[C@H](COP(O)(O)=S)[C@@H](O)[C@H]1OP(O)(=S)OC[C@H]1O[C@@H](n2cnc3c(N)ncnc32)[C@H](OP(O)(=S)OC[C@H]2O[C@@H](n3cnc4c(N)ncnc43)[C@H](OP(O)(=S)OCCCNC(=O)C3CCC(CN4C(=O)CC(SC[C@H](NC(=O)N[C@@H](CCC(=O)O)C(=O)O)C(=O)O)C4=O)CC3)[C@@H]2O)[C@@H]1O` (stereo partly shown) [RBI 1033]: the “times more potent than ZJ24 as folate hydrolase inhibitor” value on PSMA [2] (compared to ZJ24) is given as “more than 10 times”. Also, on PSMA [3] (compared to ZJ24), the “times higher affinity to PSMA than ZJ24” value is recorded as “more than 10 times”.

Broadly, the EC50 is the concentration at which the effect is half-maximal. The IC50 is the concentration that gives 50% inhibition. Regarding “(S)-2-[3-((R)-1-carboxy-2-methyl-sulfanyl-ethyl)-ureido]-pentanedioic acid [ZJ24]”, the results for the EC50 (in assay [4]; at PSMA [5]) were 15.3 nM and 56.7 nM, respectively. Also, the IC50 on PSMA [2] (PSMA positive membrane preparations, MTXGlu2 substrate, 1 h, read-out: IC50 as folate hydrolase inhibitor) was found to be 53.9 nM; on PSMA [3] (12 nM 3H-ZJ24, 30 min, read-out: IC50 for inhibition of binding of 3H-ZJ24 to the cell membrane), 15.3 nM.
